Test results: patent US20240148691A1, “Treatment of Hypertension-Related and Vascular Diseases” (The Medical College of Wisconsin, Inc., priority 2021, published 2024)
“Also recorded” adds a separate entry of the source.

Assays:
KATP channels = test: Glibenclamide-induced arteriole constriction in diabetic rats; parameters: species or system rat
Source text: The inventors hypothesized that SHetA2 acts by inhibiting p66Shc-induced activation of KATP channels in diabetic animals. Therefore, the inventors treated control and SHetA2 treated arterioles with increasing concentrations of glibenclamide, antidiabetic drug which binds and inhibits the ATP-sensitive potassium channel's KATP inhibitory subunit which causes increasing of intracellular Ca^2+ concentrations leading to arteriole constriction.

[1] = test system: renal afferent arterioles; test: Renal afferent arteriole microvascular responses (juxtamedullary nephron technique) after chronic treatment of hypertensive SS rats; type: in vivo, rat
Method: (§1) Microvascular responses of renal afferent preglomerular arterioles to perfused pressure. Juxtamedullary nephron vasculature was isolated, and an afferent arteriole was monitored continuously by videomicroscopy. SS/BN2 refers to BN chromosome replacement into SS background. Thus, SS/BN2 are not expected to be salt-sensitive and represent a control for the SS strain.
Vascular reactivity of renal afferent arterioles was measured using the juxtamedullary nephron technique approximately 24 hours after final treatment (18 weeks) (FIG. 9). Remarkably, SHetA2 restored renal microvascular responses in hypertensive rats, as detected by response of afferent arterioles either to increasing perfusion pressure or to ATP, known mediator of afferent arteriolar autoregulatory responses (FIG. 8).
(§2) SS rats were weaned at 3 weeks of age and transferred to 1% salt diet for additional 3 weeks before treatment. At 6 weeks of age, rats were either given vehicle control or SHetA2 at 60 mg/kg by oral gavage. Oral gavage was performed 3 times weekly every other day for a period of 18 weeks. […] Urine was collected from rats housed in metabolic cages for 1-2 hours, approximately 24 hours after last treatment after 6, 12 and 18 weeks of treatment. […] Vascular reactivity of renal afferent arterioles was measured using the juxtamedullary nephron technique approximately 24 hours after final treatment (18 weeks) (FIG. 7).

[2] = test system: renal afferent preglomerular arterioles; test: Renal afferent preglomerular arteriole microvascular responses, SHetA2 added in vitro; parameters: species or system rat
Source text: as §1
Microvascular reactivity of renal blood vessels is reduced in two major causes of end stage renal disease: hypertension-induced nephropathy (HN) and diabetic nephropathy. One of the highlights of vascular dysfunction in HN is the loss of autoregulation of blood resistance vessels. Using rat model of salt-sensitive (SS) HN we have previously shown that overexpression of adaptor protein p66Shc is implicated in the loss of microvascular reactivity during the progression of HN (FIGS. 3, 5). In HN p66Shc is over-expressed in vascular smooth muscle cells of the walls of renal resistance arteries, including afferent arteriole (FIG. 4). p66Shc knockout restores the ability of afferent arteriole to contract in response to increased perfusion pressure and ATP (FIG. 5) and mitigates glomerular damage in SS rats on 1% salt diet. In this study, we tested ability of a flexible heteroarotinoid called Sulfur Heteroarotinoid A2 (SHetA2, pronounced Ess-Het-Aye-Two), known to inhibit p66Shc action, to prevent development and restore renal microvascular responses in hypertensive rats when added after the development of hypertension-induced nephropathy. […] Remarkably, SHetA2 prevented loss of microvascular reactivity and restored renal microvascular responses in hypertensive rats, as detected by response of afferent arterioles either to increasing perfusion pressure or to ATP, known mediator of afferent arteriolar autoregulatory responses (FIG. 6).

[3] = test system: hypertension-induced nephropathy; test: Urinary protein excretion in salt-sensitive hypertensive rats; type: in vivo, rat
Method: as §2
Hypertension-induced nephropathy causes excessive protein excretion in the urine.

[4] = Blood pressure and body weight during long-term treatment of hypertensive rats; type: in vivo, rat
Method: To assess whether treatment with SHetA2 would reduce the systolic blood pressure in hypertensive rats, animals were treated for 18 weeks with either vehicle control or SHetA2.
as §2

afferent arterioles = test: Renal microvascular responses in streptozotocin-induced diabetic rats; type: in vivo, rat; conditions: for renal microvascular responses: diabetic animals
Source text: (§3) The inventors hypothesized that SHetA2 would be effective in preventing and treating diabetic nephropathy. Therefore, the inventors treated rats with diabetes induced by streptozotocin (STZ) with SHetA2. […] (FIGS. 20-21).

diabetic nephropathy = test: Urinary protein excretion in diabetic animals; type: in vivo, rat
Source text: as §3

[5] = cited from earlier work

COc1ccc(Cl)cc1C(=O)NCCc1ccc(S(=O)(=O)NC(=O)NC2CCCCC2)cc1 [glibenclamide]
arteriole constriction (KATP channels; control arterioles, increasing glibenclamide concentrations): caused constriction
signs of diabetic nephropathy (KATP channels; diabetic p66ShcKO rats): not diabetic p66ShcKO rats
signs of diabetic nephropathy (KATP channels; diabetic rats): effective in attenuating
glibenclamide effect / arteriole constriction (KATP channels; diabetic rats / arterioles treated with SHetA2, increasing glibenclamide concentrations): not in SHetA2 treated arterioles; also recorded: lack of glibenclamide effect

CC1(C)CC(C)(C)c2cc(NC(=S)Nc3ccc([N+](=O)[O-])cc3)ccc2S1 [SHetA2, Sulfur Heteroarotinoid A2]
renal microvascular responses of afferent arterioles to increasing perfusion pressure or ATP ([1]; hypertensive SS rats, 1% salt diet, SHetA2 60 mg/kg oral gavage 3 times weekly, 18 weeks, about 24 hours after final treatment, 60 mg/kg): restored
renal damage ([1]; hypertensive rats): mitigates
vessel diameter after chronic administration of SHetA2 ([1]; male and female rats (FIG. 17)): decrease
vessel diameter in response to SHetA2 treatment ([2]; dose dependence (FIG. 14)): dose-dependent decrease
renal microvascular responses in renal afferent preglomerular arterioles ([2]; in vitro, hypertensive rats (FIG. 6)): partially restored
renal microvascular response ([2]; salt-sensitive rats with hypertension, dose dependence (FIG. 14)): dose-dependent increase
urinary protein excretion ([3]; S36A salt-sensitive animals): reduces or prevents
urinary protein excretion ([3]; wild type SS hypertensive rats, SHetA2 60 mg/kg oral gavage, vs control-treated rats, 60 mg/kg): statistically significant decrease; also recorded: significantly reduces
urinary protein excretion ([3]; wild type SS hypertensive rats, SHetA2 60 mg/kg oral gavage, vs control-treated rats, listed as SHet2A): reduces or prevents
progression of hypertension / increase of blood pressure ([4]; 1% salt diet, long-term treatment): did not prevent; also recorded: lack of effect
systolic blood pressure ([4]; hypertensive rats, 18 weeks treatment vs vehicle): did not significantly reduce
body weight ([4]; long-term treatment): lack of effect
development of microvascular damage (afferent arterioles; STZ diabetic rats): successfully prevented
renal microvascular responses (afferent arterioles; acute treatment): increased
renal microvascular responses (afferent arterioles; chronic treatment, oral gavage every other day): increased
signs of diabetic nephropathy (dilation of afferent arterioles) (afferent arterioles; p66ShcKO rats treated with STZ): absence of effect
signs of diabetic nephropathy (dilation of afferent arterioles) (afferent arterioles; rats treated with streptozotocin (STZ)): reduces or prevents
urinary protein excretion (diabetic nephropathy): reduces or prevents
effect on heart function ([5]; animal models, after months of treatment): does not have any detectable effect
teratogenicity (birth defects) ([5]; animal models): does not cause
toxicity ([5]; oral, doses 25-fold above the doses used in the rat hypertensive model): no toxicity
